target: T1, human CTPS1 (Homo sapiens, UniProt P17812); test: RapidFire/MS-based enzyme selectivity assay (human CTPS1 versus CTPS2), CTPS1 isoform; assay type: biochemical; details: RapidFire/MS IC50 values of CTPS1 and CTPS2; Table 15
T1 construct: FLAG (with GG linker); His8 (with GG linker); purchased Proteros biostructures GmbH
T1 sequence (P17812 1-591): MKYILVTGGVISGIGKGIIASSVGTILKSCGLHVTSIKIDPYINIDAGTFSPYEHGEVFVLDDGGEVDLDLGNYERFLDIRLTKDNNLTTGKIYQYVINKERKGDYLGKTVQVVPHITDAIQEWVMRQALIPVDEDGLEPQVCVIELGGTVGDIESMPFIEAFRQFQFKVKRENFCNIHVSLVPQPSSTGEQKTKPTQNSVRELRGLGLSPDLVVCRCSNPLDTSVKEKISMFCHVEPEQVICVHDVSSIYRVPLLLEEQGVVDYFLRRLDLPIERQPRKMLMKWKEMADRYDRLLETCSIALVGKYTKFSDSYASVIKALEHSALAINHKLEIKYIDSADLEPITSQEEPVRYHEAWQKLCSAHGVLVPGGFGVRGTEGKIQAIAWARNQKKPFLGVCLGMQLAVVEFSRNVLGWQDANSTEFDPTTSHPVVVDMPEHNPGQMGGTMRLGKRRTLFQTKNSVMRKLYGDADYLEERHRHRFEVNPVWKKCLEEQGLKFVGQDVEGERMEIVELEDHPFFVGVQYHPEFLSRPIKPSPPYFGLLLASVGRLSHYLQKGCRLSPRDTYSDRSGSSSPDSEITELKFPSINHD
Description: Human CTPS1 Versus CTPS2 Selectivity Assessment by RapidFire/MS Analysis.
The enzyme inhibitory activities against each target isoform of interest may be determined for the compounds of the invention using an optimised RapidFire high-throughput mass spectrometry (RF/MS) assay format. RF/MS assays for both human CTPS1 and CTPS2 may be performed in assay buffer consisting of 50 mM HEPES (Merck), 20 mM MgCl2, 5 mM KCl, 1 mM DTT, 0.01% Tween-20, pH to 8.0 accordingly. Human full-length active C-terminal FLAG-His-tag CTPS1 (UniProtKB—P17812, CTPS1[1-591]-[…] (CTPS1[1-591]-SEQ ID NO: 1)) may be obtained from Proteros biostructures GmbH. Human full length active C-terminal FLAG-His-Avi tagged CTPS2 (UniProtKB—Q9NRF8, CTPS2 [1-586]-[…] (CTPS2 [1-586]—SEQ ID NO: 2)) may be obtained from Harker Bio.
Human CTPS (1 or 2) protein may be prepared in 1× assay buffer to the final working protein concentration required for the reaction. A 2 uL volume per well of 2×CTPS (1 or 2) protein may be mixed with 40 nL of compound using acoustic (ECHO) delivery and incubated for 10 minutes at 25° C. Each isoform enzymatic reaction may be subsequently initiated by addition of 2 uL per well of a 2× substrate mix in assay buffer. For hCTPS1: ATP (0.3 mM), UTP (0.2 mM), GTP (0.07 mM) and L-glutamine (0.1 mM). For hCTPS2: ATP (0.1 mM), UTP (0.04 mM), GTP (0.03 mM) and L-glutamine (0.1 mM). Each mixture may be incubated for an appropriate amount of time per isoform within the determined linear phase of the reaction at 25° C. A 80 uL volume of stop solution (1% formic acid with 0.5 uM ^13C9-^15N3-CTP in H2O) may be added and the plate immediately heat-sealed and centrifuged for 10 minutes at 4,000 rpm. Following centrifugation, plates may be loaded onto the Agilent RapidFire microfluidic solid phase extraction system coupled to an API4000 triple quadrupole mass spectrometer (RF/MS) for analysis.
In all cases, the enzyme converts UTP to CTP. Highly specific and sensitive multiple reaction monitoring (MRM) MS methods may be optimised for the detection of the enzymatic reaction product, CTP, and the stable isotope labelled product standard ^13C9-^15N3-CTP. Readout for data analysis may be calculated as the ratio between the peak area of the product CTP and the internal standard ^13C9-^15N3-CTP. For data reporting, the following equation may be used:
(R=ratio/readout, P=product signal area, IS=internal standard signal area)
For each screening plate, the means of the negative (DMSO) and positive control values were used for the calculation of the respective assay window (S/B) and Z′ values. The median of the respective control values was used for calculation of percent inhibition according to the following equation:
(I=Inhibition, Rneq=median of negative control readout values, Rpos=median of positive control readout values, Rsample=sample readout value)
Percentage inhibition was then plotted against compound concentration, and the 50% inhibitory concentration (IC50) was determined from the resultant concentration-response curve.
Fold selectivity between CTPS1 and CTPS2 was subsequently calculated according to the following equation: […]

Row | Selectivity (fold selectivity between CTPS1 and CTPS2) | SMILES
1 | + (2-30 fold (+)) | CCC(C(=O)Nc1ccc(-c2cncc(Cl)c2)cc1)c1ccnc(NS(=O)(=O)C2CC2)n1 (stereo not drawn) [P1, N-(4-(5-Chloropyridin-3-yl)phenyl)-2-(2-(cyclopropanesulfonamido)pyrimidin-4-yl)butanamide]
2 | +++ (>60 fold (+++)) | CCOc1cncc(-c2ccc(NC(=O)C3(c4ccnc(NS(=O)(=O)C5CC5)n4)CCCC3)cc2)n1 [P2, 1-(2-(Cyclopropanesulfonamido)pyrimidin-4-yl)-N-(4-(6-ethoxypyrazin-2-yl)phenyl)cyclopentanecarboxamide]
3 | +++ (>60 fold (+++)) | CC(C)Oc1cncc(-c2ccc(NC(=O)C(C)(C)c3ccnc(NS(=O)(=O)C4CC4)n3)nc2)n1 [P9, 2-(2-(cyclopropanesulfonamido)pyrimidin-4-yl)-N-(5-(6-isopropoxypyrazin-2-yl)pyridin-2-yl)-2-methylpropanamide]
4 | ++ (>30-60 fold (++)) | CC(C)Oc1cncc(-c2ccc(NC(=O)Cc3ccnc(NS(=O)(=O)C4CC4)n3)c(F)c2)n1 [P12, 2-(2-(cyclopropanesulfonamido)pyrimidin-4-yl)-N-(2-fluoro-4-(6-isopropoxypyrazin-2-yl)phenyl)acetamide]
5 | ++ (>30-60 fold (++)) | O=C(Cc1ccnc(NS(=O)(=O)C2CC2)n1)Nc1ccc(-c2cccnc2)cc1 [P16, 2-(2-(cyclopropanesulfonamido)pyrimidin-4-yl)-N-(4-(pyridin-3-yl)phenyl)acetamide]
6 | ++ (>30-60 fold (++)) | CCOc1cncc(-c2ccc(NC(=O)Cc3ccnc(NS(=O)(=O)C4CC4)n3)cc2)n1 [P18, 2-(2-(cyclopropanesulfonamido)pyrimidin-4-yl)-N-(4-(6-ethoxypyrazin-2-yl)phenyl)acetamide]
7 | ++ (>30-60 fold (++)) | CC(C)Oc1cncc(-c2ccc(NC(=O)Cc3ccnc(NS(=O)(=O)C4CC4)n3)cc2)n1 [P21, 2-(2-(cyclopropanesulfonamido)pyrimidin-4-yl)-N-(4-(6-isopropoxypyrazin-2-yl)phenyl)acetamide]
8 | +++ (>60 fold (+++)) | CCOc1cncc(-c2ccc(NC(=O)C(C)(C)c3ccnc(NS(=O)(=O)C4CC4)n3)nc2)n1 [P31, 2-(2-(cyclopropanesulfonamido)pyrimidin-4-yl)-N-(5-(6-ethoxypyrazin-2-yl)pyridin-2-yl)-2-methylpropanamide]
9 | + (2-30 fold (+)) | CCOc1cncc(-c2ccc(NC(=O)C(C)(C)c3ccnc(NS(=O)(=O)C4CC4)n3)c(C#N)c2)n1 [P34, N-(2-cyano-4-(6-ethoxypyrazin-2-yl)phenyl)-2-(2-(cyclopropanesulfonamido)pyrimidin-4-yl)-2-methylpropanamide]
10 | + (2-30 fold (+)) | CCOc1cncc(-c2ccc(NC(=O)C(C)(C)c3ccnc(NS(=O)(=O)C4CC4)n3)c(F)c2)n1 [P38, 2-(2-(cyclopropanesulfonamido)pyrimidin-4-yl)-N-(4-(6-ethoxypyrazin-2-yl)-2-fluorophenyl)-2-methylpropanamide]
11 | + (2-30 fold (+)) | CC(C)Oc1cncc(-c2ccc(NC(=O)C(C)(C)c3ccnc(NS(=O)(=O)C4CC4)n3)c(F)c2)n1 [P39]
12 | + (2-30 fold (+)) | CC(C)(C(=O)Nc1ccc(-c2cccnc2)cc1)c1ccnc(NS(=O)(=O)C2CC2)n1 [P59, 2-(2-(cyclopropanesulfonamido)pyrimidin-4-yl)-2-methyl-N-(4-(pyridin-3-yl)phenyl)propanamide]
13 | ++ (>30-60 fold (++)) | CCOc1cncc(-c2ccc(NC(=O)C(C)(C)c3ccnc(NS(=O)(=O)C4CC4)n3)cc2)n1 [P65, 2-(2-(cyclopropanesulfonamido)pyrimidin-4-yl)-N-(4-(6-ethoxypyrazin-2-yl)phenyl)-2-methylpropanamide]
14 | ++ (>30-60 fold (++)) | CCOc1cncc(-c2ccc(NC(=O)C(C)(C)c3nc(NS(=O)(=O)C4CC4)ncc3F)cc2)n1 [P68, 2-(2-(cyclopropanesulfonamido)-5-fluropyrimidin-4-yl)-N-(4-(9-ethoxypyrazin-2-yl)phenyl)-2-methylpropanamide]

same assay, conditions: RapidFire/MS IC50 values of CTPS1 and CTPS2; Table 17

Row | Selectivity (fold selectivity between CTPS1 and CTPS2) | SMILES
15 | +++ (>60 fold (+++)) | CCOc1cncc(-c2ccc(NC(=O)C3(c4ccnc(NS(=O)(=O)C5CC5)n4)CCC(N(C)C)CC3)nc2)n1 (single isomer, unassigned) [P229, 1-(2-(cyclopropanesulfonamido)pyrimidin-4-yl)-4-(dimethylamino)-N-(5-(6-ethoxypyrazin-2-yl)pyridin-2-yl)cyclohexane-1-carboxamide]

same assay, conditions: Table 16, human CTPS1 over human CTPS2, RapidFire/MS IC50 values

Row | Selectivity (fold selectivity between CTPS1 and CTPS2) | SMILES
16 | ++ (>30-60 fold (++)) | CCC(NC(=O)c1ccc(-c2cncc(F)c2)cc1)c1csc(NS(=O)(=O)C2CC2)n1 (single isomer, unassigned) [R68, N-(1-(2-(cyclopropanesulfon-amido)thiazol-4-yl)propyl)-4-(5-fluoropyridin-3-yl)benzamide]
17 | +++ (>60 fold (+++)) | CCC(NC(=O)c1ccc(-c2cncc(F)c2)cc1)c1csc(NS(=O)(=O)C2CC2)n1 (single isomer, unassigned) [R69, N-(1-(2-(cyclopropanesulfon-amido)thiazol-4-yl)propyl)-4-(5-fluoropyridin-3-yl)benzamide]
18 | +++ (>60 fold (+++)) | CCOc1cncc(-c2ccc(C(=O)NC(CC)c3csc(NS(=O)(=O)C4CC4)n3)c(F)c2)n1 (single isomer, unassigned) [R70, N-(1-(2-(cyclopropanesulfon-amido)thiazol-4-yl)propyl)-4-(6-ethoxypyrazin-2-yl)-2-fluorobenzamide]
19 | +++ (>60 fold (+++)) | CCOc1cncc(-c2ccc(C(=O)NC(CC)c3csc(NS(=O)(=O)C4CC4)n3)c(F)c2)n1 (single isomer, unassigned) [R71, N-(1-(2-(cyclopropanesulfon-amido)thiazol-4-yl)propyl)-4-(6-ethoxypyrazin-2-yl)-2-fluorobenzamide]
20 | +++ (>60 fold (+++)) | CCOc1cncc(-c2ccc(C(=O)NC(CCOC)c3csc(NS(=O)(=O)C4CC4)n3)c(F)c2)n1 (single isomer, unassigned) [R92, N-(1-(2-(cyclopropanesulfon-amido)thiazol-4-yl)-3-methoxypropyl)-4-(6-ethoxypyrazin-2-yl)-2-fluorobenzamide]
21 | +++ (>60 fold (+++)) | CCOc1cncc(-c2ccc(C(=O)NC(CCOC)c3csc(NS(=O)(=O)C4CC4)n3)c(F)c2)n1 (single isomer, unassigned) [R93, N-(1-(2-(cyclopropanesulfon-amido)thiazol-4-yl)-3-methoxypropyl)-4-(6-ethoxypyrazin-2-yl)-2-fluorobenzamide]

Reference: patent US20230086703A1, “N-(4-(5-chloropyridin-3-yl)phenyl)-2-(2-(cyclopropanesulfonamido)pyrimidin-4-yl) butanamide derivatives and related compounds as human CTPS1 inhibitors for the treatment of proliferative diseases” (Step Pharma S.A.S., priority 2019, published 2023)
